Measurements published in article PMC12797238 (ACS Infectious Diseases, 2025).
Where “and” joins values, the source holds several entries; their conditions need not be identical. Identical values can stand only once.

What was measured:
Human BJ Fibroblast = assay: Drug sensitivity assay, dose–response curves, human BJ fibroblasts; type: cell-based; settings: mean, n ≥ 3
Excerpt: (§1) Human fibroblasts, T. brucei, T. gambiense, P. falciparum, L. mexicana, and B. divergens were cultivated as described previously, and dose–response curves were obtained by their cultivation on 96 well plates in a 2-fold seriel dilution of the appropriate drug.

[1] = system: Trypanosoma brucei bloodstream forms; assay: Drug sensitivity assay, dose–response curves, T. brucei; type: cell-based; settings: for EC50: bloodstream forms, mean, n ≥ 3
Excerpt: as §1

[2] = system: Trypanosoma gambiense bloodstream forms; assay: Drug sensitivity assay, dose–response curves, T. gambiense; type: cell-based; settings: for EC50: bloodstream forms, mean, n ≥ 3; for T. gambiense selectivity: relative to fibroblasts
Excerpt: as §1

[3] = system: Leishmania mexicana axenic amastigotes; assay: Drug sensitivity assay, dose–response curves, L. mexicana; type: cell-based; settings: for EC50: axenic amastigotes, mean, n ≥ 3; for L. mexicana selectivity: relative to fibroblasts
Excerpt: as §1

[4] = system: Toxoplasma gondii tachyzoites (RH strain), intracellular stages; assay: T. gondii lytic cycle plaque assay in HFF monolayers; type: cell-based; settings: for EC50: intracellular stages, plaque assay in HFFs, 7 days, n ≥ 3; for T. gondii selectivity: relative to fibroblasts
Procedure: T. gondii tachyzoites of the RH strain were routinely maintained through passages in a human foreskin fibroblasts (HFFs) monolayer (ATCC CRL-1634). HFFs and parasites were cultured in standard Dulbecco’s Modified Eagle Medium (DMEM), supplemented with 5% decomplemented fetal bovine serum (FBS), 2 mM L-glutamine, 100 U/mL penicillin, and 100 μg/mL streptomycin (Gibco) at 37 °C and with 5% CO2 in an incubator with a controlled atmosphere.
The lytic cycle of T. gondii tachyzoites was assessed by a plaque assay as described previously. Briefly, tachyzoites were allowed to invade monolayers of HFFs for 3 h before addition of the compounds or the DMSO vehicle and were subsequently cultivated for 7 days at 37 °C and 5% CO2. They were then fixed with 4% (w/v) paraformaldehyde (PFA, diluted in phosphate-buffered saline (PBS)) for 20 min and stained with a 0.1% crystal violet solution (V5265, Sigma-Aldrich), washed, and air-dried before imaging under an Olympus MVX10 microscope.
Figure S1. EC50 determination of selected compounds in Toxoplasma.
B) EC50 curves based on plaque
area measured from three independent plaque assays. Data are mean ± standard deviation. C)
vacuoles were counted for each con dition. Values represented are mean ± standard deviation of […]

[5] = system: Babesia divergens intracellular stages; assay: Drug sensitivity assay, dose–response curves, B. divergens; type: cell-based; settings: for EC50: intracellular stages, mean, n ≥ 3; for B. divergens selectivity: relative to fibroblasts
Excerpt: as §1

[6] = system: Plasmodium falciparum intracellular stages; assay: Drug sensitivity assay, dose–response curves, P. falciparum; type: cell-based; settings: for EC50: intracellular stages, mean, n ≥ 3; for P. falciparum selectivity: relative to fibroblasts
Excerpt: as §1

[7] = system: T. brucei 427 bloodstream form mitochondria; assay: Mitochondrial membrane potential in T. brucei (TMRE, flow cytometry); type: cell-based, Trypanosoma brucei; settings: 24 h at 3× EC50
Procedure: The mitochondrial membrane potential of T. brucei 427 bloodstream form was assessed using the fluorescent probe TMRE (Thermo Fisher Scientific) as described in ref . […] Untreated cells and cells preincubated with a 50 μM CCCP uncoupler for 30 min were used as negative and positive controls, respectively. Approximately 1 × 10^6 cells were incubated with 60 nM TMRE for 30 min, washed 1× with sterile PBS, and 5,000 events were measured on a Guava EasyCyte 8HT flow cytometer (Luminex) using a 488 nm excitation laser and a 583/26 nm detector. Median fluorescence was plotted against an untreated culture using Prism 8.0 (GraphPad Software), and statistical significance was determined using RM one-way ANOVA with Geisser–Greenhouse correction. The experiment was performed in three biologically independent replicates.

[8] = system: T. brucei 427 bloodstream forms, protein-bound iron; assay: Iron distribution in T. brucei (55Fe, blue native electrophoresis, phosphor imaging); type: cell-based, Trypanosoma brucei; settings: T. brucei preincubated with 55Fe; 8 h exposure; EC90 concentrations for 14 and 15
Procedure: The assay was performed as described in ref . T. brucei 427 bloodstream forms were grown in HMI-9 medium supplemented with 0.5 μM ^55Fe (29 600 MBq mg^–1) in the form of ferric citrate (1:20) and incubated for 24 h. […] Untreated cells were used as a control. After incubation, the cells were harvested by centrifugation and washed three times with NaCl–HEPES buffer (140 mM NaCl, 10 mM HEPES, pH 7.4). Cells were lysed by sonication in NaCl–HEPES buffer containing 1% digitonin and cOmplete EDTA-free protease inhibitor cocktail (Roche). Gels were vacuum-dried, autoradiographed for 5 days using a BAS-IP TR 2025 E tritium storage phosphor screen (GE Healthcare), and visualized with Typhoon FLA 7000 (GE Healthcare).

[9] = system: Toxoplasma tachyzoites mitochondrion; assay: Toxoplasma mitochondrial membrane potential (MitoTracker, cytometry and microscopy); type: cell-based, Toxoplasma gondii; settings: 24 h at 3× EC50; for T. gondii mitochondrial membrane potential, flow cytometric quantification of Mitotracker labeling: DFX at 60 nM; for Mitotracker staining of T. gondii, microscopic observation: FCCP as uncoupler control
Procedure: We used the MitoTracker Deep Red FM fluorescent probe (Invitrogen) to assess the mitochondrial membrane potential in Toxoplasma tachyzoites. […] After another 24 h of culture at 37 °C and 5% CO2, Mitotracker labeling was performed as described in the protocol provided by the manufacturer, with a 45 min incubation at 37 °C and 5% CO2 of the reconstituted dye diluted to 1/1000 in culture medium. Parasites were then fixed for 30 min in 4% (w/v) PFA (diluted in PBS), washed twice in PBS, scraped, syringed (with a 25 G needle), filtered on a 40 μm membrane, and resuspended in 1 mL of PBS. Parasites were then analyzed with an Aurora spectral cytometer (Cytek), using a 633 nm excitation laser and a 665 nm detector. 10,000 events were recorded. Mean fluorescence was plotted against vehicle-treated culture parasites using Prism 8.0 (GraphPad Software), and statistical significance was determined using one-way ANOVA with Tukey’s multiple-comparison test. The experiment was performed for three biologically independent replicates. For the membrane depolarization control, parasites were treated with 10 μM FCCP for 30 min prior to and during incubation with the Mitotracker dye.
Intracellular parasites and the host cell monolayer were then fixed 24 h later with 4% (w/v) PFA (diluted in PBS) for 20 min, and after fixation, cells were permeabilized with 0.3% (v/v) Triton X-100 (diluted in PBS) for 10 min. Costaining with the anti-F1β ATPase mitochondrial marker was performed as described below.

T. gondii mitochondrion = assay: Toxoplasma immunofluorescence assay of organelle morphology; type: cell-based, Toxoplasma gondii; settings: 24 h at 3× EC50; for morphology of the T. gondii mitochondrion: DFX at 60 nM
Procedure: For IFAs to assess organelle morphology, coverslips seeded with HFFs were infected with T. gondii tachyzoites, and 3 h later, compounds were added (at 3 times their respective EC50). Intracellular parasites and host cell monolayers were then fixed 24 h later with 4% (w/v) PFA (diluted in PBS) for 20 min. After fixation, cells were permeabilized with 0.3% (v/v) Triton X-100 (diluted in PBS) for 10 min. Coverslips were blocked with 2% (w/v) bovine serum albumin (BSA) for 1 h prior to immunolabeling with a primary antibody for 1 h. After 3 washes in PBS, a corresponding secondary antibody was incubated for 1 h. Coverslips were then incubated with 1 μg/mL of Hoechst stain for 5 min before 3 washes in PBS and, finally, mounted using Immu-Mount (Thermo Fisher) onto microscope slides. Primary antibodies used were prepared in 2% BSA (diluted in PBS) and used at the following concentrations: the apicoplast was stained using rabbit anti-PDH-E2 (1:500), the mitochondrion was stained using mouse anti-F1β ATPase (1:1000, gift of P. Bradley). Anti-mouse and anti-rabbit secondary antibodies were all from Thermo Fisher and were diluted at 1:4000. Image acquisition was performed with a Zeiss Axio Observer inverted microscope equipped with a Zeiss Axiocam 712 camera and 63×/1.4 or 100×/1.4 Oil Plan Achromat objectives. Images were processed with Zen Blue v3.6 software (Zeiss). Z-stack acquisitions were processed by a maximum-intensity orthogonal projection. Adjustments of brightness and contrast were applied uniformly, and paired images were acquired with the same exposure time. Quantifications of mitochondrial morphology were performed by microscopic observation of a series of at least 100 parasites, and data from three independent biological replicates was acquired and plotted using Prism 8.0 (GraphPad Software). Statistical significance was determined using one-way ANOVA with Tukey’s multiple-comparison test.

T. gondii tachyzoites = settings: 24 h treatment at 3× EC50
Procedure: Parasites were allowed to invade an HFF monolayer on coverslips for 3 h before addition of the compounds (at 3 times their respective EC50) and left to grow for 24 h before being fixed and performing parasites immunodetection was by IFA with a mouse anti-SAG1 antibody, as described previously. The number of parasites per vacuole was counted and scored. Independent experiments were conducted 3 times, and 200 random vacuoles were counted for each condition.
Replication assay of T. gondii tachyzoites, which were allowed to invade HFF -coated coverslips,
then treated for 24 h with the compounds at 3 times the EC50 or DMSO vehicle, after which number
of parasites per vacuole was quantified for each condition and expressed as a percentage, 200
the compounds, using two -way ANOVA with Dunnett’s multiple comparison test.

Row | Structure (SMILES) | EC50 (Human BJ Fibroblast) [nM] | EC50 [1] | EC50 [2] [nM] | T. gambiense selectivity [2] | EC50 [3] [nM] | L. mexicana selectivity [3] | EC50 [4] [nM] | T. gondii selectivity [4] | EC50 [5] [nM] | B. divergens selectivity [5] | EC50 [6] [nM] | P. falciparum selectivity [6] | mitochondrial membrane potential of T. brucei (relative to untreated) [7] | change in overall protein-bound iron distribution [8] | T. gondii mitochondrial membrane potential, flow cytometric quantification of Mitotracker labeling [9] | Mitotracker staining of T. gondii, microscopic observation [9] | morphology of the T. gondii mitochondrion (T. gondii mitochondrion) | also measured
1 | CC(C)(C)OC(=O)NNc1ccc(C(=O)NCCCCCCCCCC[P+](c2ccccc2)(c2ccccc2)c2ccccc2)cc1.[Cl-] [compound 15, triphenylphosphine-C10-NHCOBocFenylhydrazine] | 7400 | 37 nM and 37.5 nM | 60 | 122 | 348 | 21 | 350 | 21 | 76.2 | 96 | 311 | 23 | less than 50% | neither mitoDFX nor the nonchelating compound 15 did cause any detectable change | most impactful | strong decrease in Mitotracker staining | altered the morphology of the organelle | 
2 | O=C(NCCCCCCCCCC[P+](c1ccccc1)(c1ccccc1)c1ccccc1)c1ccc(-n2nc(-c3ccccc3O)nc2-c2ccccc2O)cc1.[Cl-] [compound 14, triphenylphosphine-C10-DFX] | 1710 | 4.2 nM | 10.4 | 165 | 52 | 33 | 17 | 101 | 41.2 | 42 | 54.8 | 31 | less than 50% | neither mitoDFX nor the nonchelating compound 15 did cause any detectable change | most impactful | strong decrease in Mitotracker staining | altered the morphology of the organelle | EC50 ([1]; listed as mitoDFX): 4 nM; T. brucei selectivity ([1]; relative to human BJ fibroblast EC50, listed as mitoDFX): > 300; quantified mitochondrial morphology change (fragmented/collapsed) by IFA (T. gondii mitochondrion): caused the collapse of most T. gondii mitochondria; impact on T. gondii replication (parasites per vacuole) (T. gondii tachyzoites): particularly strong
